Here are results for 13 molecules from patent publication US20260217686A1, “N-Myristoyltransferase Inhibitors And Methods Of Use” (Seattle Children's Hospital (d/b/a Seattle Children's …, priority 2022, published 2026).

The target in data set [1] is T1, PvNMT (Plasmodium vivax, UniProt A5K1A2).
T1 construct: Gly-Pro stays on the protein after cleavage) (N, cleaved yes); host or cells: E. coli Rosetta 2 (DE3) pRARE
In words: biochemical. The settings on record: for selectivity index (SI): ratio of IC50 values for HsNMT1 and PvNMT. The format is biochemical. An excerpt:
NMT activity was indirectly measured through the detection of free CoA by the thiol-reactive probe 7-diethylamino-3-(4′-maleimidylphenyl)-4-methylcoumarin (CPM).
This study aimed to identify NMT is with high selectivity for the P. vivax enzyme compared with human NMTs and high potency against the different stages of the P. vivax parasite. For this purpose, a structure-guided approach was applied using previously reported NMT inhibitors as scaffolds to develop a new generation of PvNMT-targeting compounds. The NMT activity of these inhibitors was first measured using biochemical assays through the detection of free CoA by the thiol-reactive probe 7-diethylamino-3-(4′-maleimidylphenyl)-4-methylcoumarin (CPM). Their antiparasitic activity were further evaluated by measuring blood-stage parasite load and inhibition of P. vivax liver-stage schizont and hypnozoite infection. […] Cytotoxicity was assessed in the human hepatoma HepG2 cell line. Synchronized P. falciparum NF54 ring-stage parasites were used for measuring blood-stage parasite load. […] In vitro experiments were repeated at least twice. A single concentration of each inhibitor was initially used to evaluate the inhibition of P. vivax liver stage schizont and hypnozoite infection, followed by the determination of the dose-response relationship.
To measure the activity of the purified PvNMT an assay was adapted from the literature. […] Working stock solutions were made fresh adding DMSO for final concentrations of either 1% or 5% DMSO. […] The plate was incubated for 30 min at room temperature. The enzymatic reaction was initiated by adding 50 μL of reaction substrate containing 10 µM myrCoA and PfARF, as well as 8 μM CPM. Fluorescent readings were taken on a Spectra M2 plate reader (Molecular Devices) with excitation at 385 nm and emission at 485 nm. Fluorescent intensity was measured continuously in one-minute intervals for 45 minutes. Background fluorescence and noise were determined by replacing each constituent of the reaction individually with assay buffer containing 1% DMSO and values were deducted from experimental samples. The enzymatic reactions were set up with varying pHs (6.0-8.5) of the assay buffer to determine optimal reaction conditions with minimal background and off target reactions. In lieu of compound, 10 μL of 10% DMSO/H2O was added to each well. Fluorescence signal was obtained continuously for 45 min. […] IC50 calculations were calculated using Prism (GraphPad Software, Inc).

For data set [2], the target named is T2, HsNMT1 (Homo sapiens, UniProt P30419).
T2 construct: made in house
T2 sequence (P30419 1-496): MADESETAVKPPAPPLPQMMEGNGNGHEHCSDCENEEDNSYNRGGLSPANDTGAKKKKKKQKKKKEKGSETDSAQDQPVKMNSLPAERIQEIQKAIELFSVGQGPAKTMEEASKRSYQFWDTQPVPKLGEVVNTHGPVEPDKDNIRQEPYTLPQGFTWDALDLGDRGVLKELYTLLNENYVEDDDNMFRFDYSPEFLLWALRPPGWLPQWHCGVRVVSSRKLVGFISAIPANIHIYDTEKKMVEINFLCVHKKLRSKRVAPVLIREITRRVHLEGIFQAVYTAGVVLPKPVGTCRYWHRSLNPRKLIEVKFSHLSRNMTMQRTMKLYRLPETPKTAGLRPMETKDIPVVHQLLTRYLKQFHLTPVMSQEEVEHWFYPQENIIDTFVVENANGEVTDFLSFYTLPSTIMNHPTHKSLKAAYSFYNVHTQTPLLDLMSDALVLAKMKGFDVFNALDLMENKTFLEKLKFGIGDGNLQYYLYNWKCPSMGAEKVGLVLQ
The data set is described as follows: NMT activity assay (CPM detection of free CoA), human NMT. The settings on record: read-out: HsNMT IC50 (nM)*. The format is biochemical.

The test system of data set [3] is P. vivax hypnozoites. In words: P. vivax liver stage assay in primary human hepatocytes, hypnozoites. The format is cell-based. The settings on record: Plasmodium vivax, Hepatocyte; for IC50: 8 dpi, primary human hepatocytes, read-out: liver stage Pv hypnozoites IC50. The procedure:
Finally, the NMT-binding compounds were evaluated against non-developing P. vivax hypnozoites. […] .

Data set [4] deals with P. falciparum NF54 ring-stage parasites. The data set is described as follows: P. falciparum blood stage assay (SYBR Green parasite DNA). The format is cell-based. The settings on record: Plasmodium falciparum, NF54, 72 h; read-out: blood stage Pf NF54 IC50. The procedure: To assess whether any of the NMTis developed here could qualify as TCP-1 candidates, the effect of each compound on blood-stage P. falciparum parasites was assessed, as there is currently no well-established in vitro platform for screening P. vivax blood-stage parasites. Synchronized P. falciparum NF54 ring stage parasites were treated for 72 h with each compound at various concentrations, ranging from 0.625 μM to 10 μM, and parasite DNA replication was measured using a fluorescent DNA binding dye (SYBR Green).
Sorbitol-synchronized P. falciparum NF54 ring-stage parasites were cultured at a parasitemia of 0.5% and hematocrit of 1.5% in a 96-well microtiter plate. […] Direct lysis of the blood cells to release the parasite DNA was performed by adding 100 μL of LBS buffer containing SYBR green I DNA binding dye to each well. Plates were incubated at-20° C. overnight for complete lysis and fluorescence was measured at 485 nm (excitation) and 528 nm (emission). ICEstimator regression analysis (antimalarial-icestimator dot net) was used to obtain relative IC50 values for each compound.

Data set [5] is described as follows: HepG2 cytotoxicity assay (live/dead staining). The settings on record: human. The data set is classed as cell-based, human. The procedure:
(§1) Therefore, the cytotoxicity of the compounds was assessed in the human hepatoma HepG2 cell line. The compounds with PvNMT to HsNMT selectivity index above 20 were shortlisted for further screening.

Data set [6] has as its system P. vivax liver stage schizonts. The data set is described as follows: P. vivax liver stage assay in primary human hepatocytes, schizonts. The settings on record: Plasmodium vivax, Hepatocyte, read-out: liver stage Pv schizonts IC50 (μM).
Description: P. vivax sporozoites were obtained from three independent patient isolates. Liver stage infections were cultured in primary human hepatocytes from a single donor lot using a 384-well microculture system as described previously. Cells were infected and treated with NMTis at 20 μM beginning day 5 post-infection until day 8 when the infection rates were quantified via fluorescent microscopy. […] Accordingly, dose-response curves of all the shortlisted NMTis on parasite isolates 3 and 4 were applied over concentrations up to 20 μM (FIGS. 4C and D).
Plasmodium vivax liver stage assays were performed as described previously. Briefly, 384-well plates were seeded with primary hepatocytes from a single donor lot at a density of 25,000 cells per well. The hepatocytes were then infected with 14,000 freshly hand-dissected sporozoites per well. Cells were exposed to the compounds at indicated concentrations from day 3 post-infection, then proceeded to feed cultures every day, replacing the compounds until day 8 post-infection. Cells were fixed with 4% PFA and stained with PvUIS4 antibodies to detect schizonts and hypnozoites forms by confocal microscopy. The images were processed and analyzed using IMARIS (Bitplane Inc.) image analysis software.
In data set [7] the test system is P. falciparum. The settings on record: background; read-out: EC50 in a P. falciparum growth assay; cited from earlier work.
The test system of data set [8] is Plasmodium NMT. The settings on record: background, cited from earlier work.
The subject of data set [9] is HepG2 cells. In words: HepG2 cytotoxicity assay (live/dead staining). The format is cell-based, human. The settings on record: positive control, 10-20 μM. The procedure: as §1
Setting [10] is: Table 1, enzyme selectivity calculated as HsNMT IC50/PvNMT IC50.
[11] abbreviates: Table 1, mean values of two or more determinations.

SMILES strings stand for the structures. Like-named read-outs stand apart in the source and are kept apart here.

T1 sequence (A5K1A2 entry or part of it): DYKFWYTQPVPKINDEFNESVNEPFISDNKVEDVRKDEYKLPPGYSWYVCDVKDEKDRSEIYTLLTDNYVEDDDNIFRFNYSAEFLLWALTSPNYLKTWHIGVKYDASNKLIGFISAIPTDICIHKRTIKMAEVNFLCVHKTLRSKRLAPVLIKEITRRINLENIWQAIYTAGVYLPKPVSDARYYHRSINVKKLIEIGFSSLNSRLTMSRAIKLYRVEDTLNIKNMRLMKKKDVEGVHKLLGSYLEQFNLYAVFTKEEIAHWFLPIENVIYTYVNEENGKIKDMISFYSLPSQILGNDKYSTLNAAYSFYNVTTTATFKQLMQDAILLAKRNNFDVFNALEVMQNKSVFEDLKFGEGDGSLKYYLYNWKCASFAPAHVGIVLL

With `Cc1n[nH]c(C)c1CCOc1ccccc1-c1ccnc(N2CCNCC2)c1` [Compound 12n, 1-(4-(2-(2-(3,5-dimethyl-1H-pyrazol-4-yl)ethoxy)phenyl)pyridin-2-yl)piperazine], the “SI**” value in data set [1] (setting [10]) is recorded as 65.7. In addition, the concentration for half-maximal inhibition (IC50) amounted to 604 nM in [1] (setting [11]) and 39700 nM in data set [2] (setting [11]).

In the case of `Cc1n[nH]c(C)c1CCOc1cc(F)ccc1-c1ccnc(N2CCNCC2)c1` [Compound 12q, 1-(4-(2-(2-(3,5-dimetyl-1H-pyrazol-4-yl)ethoxy)-4-fluorophenyl)piridin-2-yl)piperazine], the “SI**” value in data set [1] (setting [10]) is listed as 22. Further, the IC50 in data set [1] (setting [11]) is 73 nM; in data set [3], 4400 nM; in [4], 380 nM; in data set [6], 2.2 to 3.5 µM; in [2] (setting [11]) it was 1630 nM. The concentration for half-maximal inhibition (IC50) at 48 h in data set [5] was above 20000 nM.

For `Cc1nn(C)c(C)c1CCOc1cc(F)ccc1-c1cc(N2CCNCC2)ncn1` [Compound 16b, 4-(4-fluoro-2-(2-(1,3,5-trimethyl-1H-pyrazol-4-yl)ethoxy)phenyl)-6-(piperazin-1-yl)pyrimidine], the “SI**” value in [1] (setting [10]) is 164.4. The 50% inhibitory concentration (IC50) was 168 nM in data set [1] (setting [11]) and 27600 nM in data set [2] (setting [11]). Besides, the “selectivity index (SI)” value in [1] was 164.

On to `Cc1nn(C)c(C)c1CCOc1cccnc1-c1cccc(OCCN(C)C)c1` [Compound 26a, N,N-dimethyl-2-(3-(3-(2-(1,3,5-trimethyl-1H-pyrazol-4-yl)ethoxy)pyridin-2-yl)phenoxy)-ethan-1-amine], for which the half-maximal inhibitory concentration (IC50) in data set [1] (Table 2) is 266 nM; in data set [2] (Table 2), above 40000 nM. In [1] (Table 2, HsNMT IC50/PvNMT IC50), the “SI**” value was 153.8.

Regarding `Cc1nn(C)c(C)c1CCOc1ccccc1-c1cccc(OCCN(C)C)c1` [Compound 26b, N,N-dimethyl-2-((2′-(2-(1,3,5-trimethyl-1H-pyrazol-4-yl)ethoxy)-[1,1′-biphenyl]-3-yl)oxy)-ethan-1-amine], the half-inhibitory concentration (IC50) in data set [1] (Table 2) was 83.2 nM; in [2] (Table 2), 9850 nM. Further, the “SI**” value in [1] (Table 2, HsNMT IC50/PvNMT IC50) is on record as 118.4.

Consider `Cc1nn(C)c(C)c1CCOc1cc(F)ccc1-c1cccc(OCCN(C)C)c1` [Compound 26c, 2-((4′-fluoro-2′-(2-(1,3,5-trimethyl-1H-pyrazol-4-yl)ethoxy)-[1,1′-biphenyl]-3-yl)oxy)-N,N-dimethylethan-1-amine], for which the IC50 in data set [1] (Table 2) is 29.4 nM; in data set [2] (Table 2) it was 4790 nM. In addition, the “SI**” value in data set [1] (Table 2, HsNMT IC50/PvNMT IC50) was determined as 162.3.

On to `CN(C)CCOc1cccc(-c2ccc(F)cc2OCCc2cccnc2)c1` [Compound 26f, 2-((4′-fluoro-2′-(2-(pyridin-3-yl)ethoxy)-[1,1′-biphenyl]-3-yl)oxy)-N,N-dimethylethan-1-amine], for which the 50% inhibitory concentration (IC50) in [1] (Table 2) was 622 nM; in data set [2] (Table 2), above 40000 nM. Besides, in data set [1] (Table 2, HsNMT IC50/PvNMT IC50), the “SI**” value came to 62.3.

Consider `Cc1n[nH]c(C)c1CCOc1cc(F)ccc1-c1cccc(OCCN(C)C)c1` [Compound 26i, 2-((2′-(2-(3,5-dimethyl-1H-pyrazol-4-yl)ethoxy)-4′-fluoro-[1,1′-biphenyl]-3-yl)oxy)-N,N-dimethylethan-1-amine], for which the 50% inhibitory concentration (IC50) came out at 242 nM in [1] (Table 2) and 13900 nM in data set [2] (Table 2). In addition, in [1] (Table 2, HsNMT IC50/PvNMT IC50), the “SI**” value stood at 57.

With `Cc1nn(C)c(C)c1CCOc1ccc2ccccc2c1-c1ccnc(N2CCNCC2)c1` [Compound 30a, 1-(4-(2-(2-(1,3,5-trimethyl-1H-pyrazol-4-yl)ethoxy)naphthalen-1-yl)pyridin-2-yl)piperazine], the IC50 in data set [1] (Table 2) was 89 nM; in [3], 2100 nM; in data set [4] it was 440 nM; in data set [6], 2.9 to 4.3 µM; in data set [2] (Table 2) it was 24000 nM. Further, in data set [1] (Table 2, HsNMT IC50/PvNMT IC50), the “SI**” value came to 269.8. Also, in [1], the “selectivity index (SI)” value turned out to be 269. The molecule also displayed an IC50 at 48 h in data set [5] above 20000 nM.

As for `c1cncc(CCOc2ccc3ccccc3c2-c2ccnc(N3CCNCC3)c2)c1` [Compound 30c, 1-(4-(2-(2-(pyridin-3-yl)ethoxy)naphthalen-1-yl)pyridin-2-yl)piperazine], the IC50 in data set [1] (Table 2) was 248 nM; in data set [2] (Table 2), above 40000 nM. Also, in data set [1] (Table 2, HsNMT IC50/PvNMT IC50), the “SI**” value is 161. In [3] (20 μM), this molecule returned an inhibition at 20 µM above 75%.

Take `Cc1nn(C)c(C)c1NS(=O)(=O)c1c(Cl)cc(-c2ccnc(N3CCNCC3)c2)cc1Cl` [DDD85646]: the EC50 in [7] is 69 nM.

For the molecule `Cc1nn(C)c(C)c1CCOc1cc(F)ccc1-c1ccc2c(c1)c(CN(C)C)nn2C` [IMP-1002], in data set [8] (previously developed NMT inhibitors), the IC50 is 3 nM. Also, the “selectivity over HsNMT1/2” value in data set [8] was “up to fourfold”. Also, in data set [7], the half-maximal effective concentration (EC50) is 10 nM.

As for `CN[C@@H]1C[C@H]2O[C@@](C)([C@@H]1OC)n1c3ccccc3c3c4c(c5c6ccccc6n2c5c31)C(=O)NC4` [Staurosporine, reference compound], in data set [9], the “effect on HepG2 cell viability” value is given as “reduced the cell viability”.
